Test results from ChEMBL document CHEMBL1201862, “PubChem BioAssay data set” (2004).
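These data come from cells grown in 96-well plates and exposed to compound for 48 hours at five concentrations. GI50 is the concentration that inhibits growth by half.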 The source made the active and inactive calls. No stated cut-off is given here; in the data, active = GI50 up to about 1.1 µM and inactive = higher.

Legend:
Experiment in all cases: inhibition of tumour cell growth, NCI panel, 48 h
A549 = test system: A549
UACC-62 = test system: UACC-62
SW-620 = test system: SW-620
UO-31 = test system: UO-31
HT-29 = test system: HT-29
SK-MEL-2 = test system: SK-MEL-2
SN12C = test system: SN12C
SF-539 = test system: SF-539
SK-MEL-5 = test system: SK-MEL-5
RXF 393 = test system: RXF 393
IGROV-1 = test system: IGROV-1
EKVX = test system: EKVX
SNB-75 = test system: SNB-75
SK-OV-3 = test system: SK-OV-3
NCI-H23 = test system: NCI-H23
SR = test system: SR
HOP-62 = test system: HOP-62
HOP-92 = test system: HOP-92
DU-145 = test system: DU-145
MCF7 = test system: MCF7

| SMILES | GI50 (A549) | GI50 (UACC-62) | GI50 (SW-620) | GI50 (UO-31) | GI50 (HT-29) | GI50 (SK-MEL-2) | GI50 (SN12C) | GI50 (SF-539) | GI50 (SK-MEL-5) | GI50 (RXF 393) | GI50 (IGROV-1) | GI50 (EKVX) | GI50 (SNB-75) | GI50 (SK-OV-3) | GI50 (NCI-H23) | GI50 (SR) | GI50 (HOP-62) | GI50 (HOP-92) | GI50 (DU-145) | GI50 (MCF7) |
| --- | --- | --- | --- | --- | --- | --- | --- | --- | --- | --- | --- | --- | --- | --- | --- | --- | --- | --- | --- | --- |
| CCCCC1(C(NC(=O)c2ccccc2Cl)c2ccncc2)C(=O)N(c2ccccc2)N(c2ccccc2)C1=O (stereo unspecified) | 28.4 µM (inactive) | 69.5 µM (inactive) | 78.7 µM (inactive) | 33 µM (inactive) | 41.6 µM (inactive) | 50.9 µM (inactive) | 94.4 µM (inactive) | 88.1 µM (inactive) | 18.1 µM (inactive) | 37.6 µM (inactive) | > 100 µM (inactive) | 58.3 µM (inactive) | 12.4 µM (inactive) | 74.1 µM (inactive) | 44.7 µM (inactive) | 55.1 µM (inactive) | > 100 µM (inactive) | 39.6 µM (inactive) |  |  |
| Cc1cc(C)nc(NC(=S)Nc2cccc(Cl)c2)c1 | 20.8 µM (inactive) | > 100 µM (inactive) | > 100 µM (inactive) | > 100 µM (inactive) | > 83.4 µM (inactive) | > 100 µM (inactive) | > 100 µM (inactive) | > 100 µM (inactive) | > 10 µM (inactive) | > 100 µM (inactive) | 16.1 µM (inactive) | > 100 µM (inactive) | > 100 µM (inactive) | > 100 µM (inactive) | > 100 µM (inactive) | 16.6 µM (inactive) | > 75.7 µM (inactive) |  | > 100 µM (inactive) |  |
| CC(C)C1C(=O)NC(CO)Cc2c[nH]c3c(C(c4c[nH]c5ccccc45)C(O)CO)ccc(c23)N1C (stereo unspecified) | 23.5 µM (inactive) | 79.8 µM (inactive) | 74.8 µM (inactive) | > 100 µM (inactive) | > 100 µM (inactive) | > 100 µM (inactive) | > 100 µM (inactive) | > 100 µM (inactive) | 16.4 µM (inactive) | > 100 µM (inactive) | > 100 µM (inactive) | > 100 µM (inactive) | 84.9 µM (inactive) | > 100 µM (inactive) | > 100 µM (inactive) | 21.7 µM (inactive) |  | 0.612 µM (active) |  |  |
| CCc1cccc(C)c1NC(=O)CCc1nnc(SC)o1 | > 100 µM (inactive) | > 100 µM (inactive) | > 100 µM (inactive) | > 100 µM (inactive) | > 100 µM (inactive) | > 100 µM (inactive) | > 100 µM (inactive) | > 100 µM (inactive) | > 100 µM (inactive) | > 100 µM (inactive) | > 100 µM (inactive) | > 100 µM (inactive) | > 79.4 µM (inactive) | > 100 µM (inactive) | > 100 µM (inactive) | 0.622 µM (active) | > 100 µM (inactive) | > 100 µM (inactive) |  |  |
| NC(Cc1ccc(S(=O)(=O)O)cc1)C(=O)NC(Cc1ccc(S(=O)(=O)O)cc1)C(=O)O (stereo unspecified) | > 100 µM (inactive) | > 100 µM (inactive) | > 100 µM (inactive) | > 100 µM (inactive) | > 100 µM (inactive) | > 100 µM (inactive) | > 100 µM (inactive) | > 100 µM (inactive) | > 100 µM (inactive) | > 100 µM (inactive) | > 100 µM (inactive) | > 100 µM (inactive) | > 100 µM (inactive) |  | > 100 µM (inactive) |  | > 100 µM (inactive) |  | > 100 µM (inactive) | > 100 µM (inactive) |
| CO[C@H]1CC[C@]2(C)C3=CC[C@@]4(C)C(CC[C@@H]4C(C)CC[C@@H](C)C(C)C)C(=CCC2C1)O3 (stereo partly specified) | > 25 µM (inactive) | > 25 µM (inactive) | > 25 µM (inactive) | > 25 µM (inactive) | > 25 µM (inactive) | > 25 µM (inactive) | > 25 µM (inactive) | > 25 µM (inactive) | > 25 µM (inactive) | > 25 µM (inactive) | > 25 µM (inactive) | > 25 µM (inactive) | > 25 µM (inactive) | > 25 µM (inactive) | > 7.91 µM (inactive) | > 25 µM (inactive) | > 25 µM (inactive) | > 22.7 µM (inactive) |  |  |
| COC1=CC(=O)C2C(C1=O)C(c1ccccc1)[C@H]2C (stereo partly specified) | > 100 µM (inactive) | > 100 µM (inactive) | 18.5 µM (inactive) | > 100 µM (inactive) | > 100 µM (inactive) | > 100 µM (inactive) |  | > 100 µM (inactive) | 80 µM (inactive) | > 100 µM (inactive) | > 100 µM (inactive) | > 100 µM (inactive) | 32.3 µM (inactive) | > 100 µM (inactive) | > 100 µM (inactive) | 31.6 µM (inactive) | > 100 µM (inactive) | 25.7 µM (inactive) |  |  |
| O=C1Sc2ccccc2C(=O)N2CSCC12 (stereo unspecified) | > 100 µM (inactive) | > 100 µM (inactive) | > 100 µM (inactive) | > 100 µM (inactive) | > 100 µM (inactive) | > 100 µM (inactive) | > 100 µM (inactive) | > 100 µM (inactive) | > 100 µM (inactive) | > 100 µM (inactive) | > 100 µM (inactive) | > 100 µM (inactive) | > 100 µM (inactive) | > 100 µM (inactive) | > 100 µM (inactive) | > 100 µM (inactive) | > 100 µM (inactive) | > 100 µM (inactive) |  |  |
